Earlier results, collected in US8071794B2, “Long wavelength thiol-reactive fluorophores” (Becton, Dickinson and Company, priority 2004, dated 2011).

Details: changing environment from methanol (polar protic) to toluene (non-polar); cited from earlier work

CN(C)c1ccc(C2=C(O)C(c3ccc(N(C)C)cc3)=C2O)cc1 [squaraine nucleus III]
increase in fluorescence quantum yield: 20 fold
